# Data reported in US20260344665A1, “FUNGICIDAL COMPOUND” (priority 2022, published 2026).
# Legend:
# Assay type in all cases: in vivo
# [1] = system: Puccinia recondita f. sp. tritici; experiment: Puccinia recondita f. sp. tritici / wheat / leaf disc preventative (brown rust); conditions: for % reduction fungal growth: wheat, preventive
# Description: (§1) Leaf disks or leaf segments of various plant species were cut from plants grown in the greenhouse. The cut leaf discs or segments were placed in multiwell plates (24-well format) onto water agar. The leaf disks were sprayed with a test solution before (preventative) or after (curative) inoculation. Compounds to be tested were prepared as water solutions (max. 10 mg/ml) which were diluted to the appropriate concentration with 0.025% Tween20 just before spraying. The inoculated leaf discs or segments were incubated under defined conditions (temperature, relative humidity, light, etc.) according to the respective test system. A single evaluation of disease level was carried out 3-9 days days after inoculation, depending on the pathosystem. Percent disease control relative to the untreated check leaf discs or segments was then calculated.
# Puccinia recondita f. sp. tritici/Wheat/Leaf Disc Preventative (Brown Rust)
# Wheat leaf segments cv. Kanzler were placed on agar in multiwell plates (24-well format) and sprayed with the formulated test compound diluted in water. The leaf disks were inoculated with a spore suspension of the fungus 1 day after application. The inoculated leaf segments were incubated at 19 °C and 75% rh under a light regime of 12 h light/12 h darkness in a climate cabinet and the activity of a compound was assessed as percent disease control compared to untreated leaf when an appropriate level of disease damage appeared in untreated check leaf segments (7-9 days after application).
# Puccinia recondita = experiment: Mixture with malonomicin, leaf disc, Puccinia recondita curative; conditions: foliar, 192 h, read-out: control of fungal growth
# From the text: An additional ingredient having pesticidal activity, for instance fungicidal activity may result in an unexpected synergistic activity. […] The action to be expected E for a given active ingredient combination obeys the so-called COLBY formula and can be calculated as follows (COLBY, S. R. “Calculating synergistic and antagonistic responses of herbicide combination”. Weeds, Vol. 15, pages 20-22; 1967): • ppm=milligrams of active ingredient (=a.i.) per liter of spray mixture • X=% action by active ingredient A) using p ppm of active ingredient • Y=% action by active ingredient B) using q ppm of active ingredient.
# According to COLBY, the expected (additive) action of active ingredients A)+B) using p+q ppm of active ingredient is:
# In mathematical terms, synergism corresponds to a positive value for the difference of (O-E). In the case of purely complementary addition of activities (expected activity), said difference (O-E) is zero. A negative value of said difference (O-E) signals a loss of activity compared to the expected activity.
# A stock solution for oligosaccharide compound according to the present invention was produced in water plus 0.025% Tween®20. Malonomicin was produced according to Law et al, 2018 (Nature Catalys is | VOL 1 | DECEMBER 2018 | 977-984). A stock solution of malonomicin was produced in water plus 0.025% Tween®20.
# Assays to test efficacy of mixtures of the compound of Formula (I) in combination with malonomicin on the control of fungal pathogens in a leaf disc assay were designed for two 24 well plates.
# Table 8 and 9: Outline of 24 well testplate (1) and testplate (2) including concentration of compounds sprayed per well. The upper number in the cell indicates the oligosaccharide compound of the present invention concentration (ppm), the lower number malonomicin concentration (ppm). Column (1) holds a dilution series of compound of Formula (I), row (2-D) hold a dilution series of malonomicin. Well 2-D-(1) represents an untreated check. This design was applied for tests including Puccinia recondita (EPPO code: PUCCRE) with preventive and curative spray timing.
# A first set of master plates with 1× concentrated spray solution of the compound of Formula (I) stock diluted in water with concentrations according to Table 8, Table 9, Table 11 and Table 12, respectively, was prepared. Each well contained 0.025% Tween®20. Accordingly, a second set of master plates with 1× concentrated malonomicin stock diluted in water was prepared. Each well of the second set contained 0.025% Tween®20. Leaf segments placed on agar in 24 well plates are sprayed with 8 ul of solution from the master plate containing compound of Formula (I) and the leaf segments were let to dry, followed 2 hours later by 8 ul of solution from the master plate containing malonomicin. After second sprays have dried, leaf segments are infected with fungal spores to obtain a preventive application timing. Alternatively, leaf segments infected one day before spray of the compounds are used, resulting in a curative spray timing. In addition, several plates were produced where leaf segments were sprayed 2× in absence of test compound (with only Tween®20), representing the untreated check samples. For each leaf segment percent leaf coverage of disease symptoms was assessed. Percent leaf coverage reduction relative to the untreated check was calculated. Efficacy of the mixtures was tested in duplicate and on different fungal species. Reported efficacy values are the average of two replicate results.
# Puccinia recondita (EPPO Code: PUCCRE) with Curative Spray Timing.
# Wheat (cultivar Kanzler) leaf segments are placed on agar in multiwell plates (24-well format). The leaf disks are then inoculated with a spore suspension of the fungus. One day after inoculation the test solution is sprayed (8 ul per well). After appropriate incubation the activity of a compound is assessed 8 dpi (days after inoculation) as curative fungicidal activity
# [2] = system: Puccinia recondita f. sp. tritici; experiment: Puccinia recondita f. sp. tritici / wheat / leaf disc curative (brown rust); conditions: for % reduction fungal growth: wheat
# Description: as §1
# Puccinia recondita f. sp. tritici/Wheat/Leaf Disc Curative (Brown Rust)
# Wheat leaf segments cv. Kanzler were placed on agar in multiwell plates (24-well format). The leaf segments were inoculated with a spore suspension of the fungus. Plates were stored in darkness at 19 °C and 75% rh. The formulated test compound diluted in water was applied 1 day after inoculation. The leaf segments were incubated at 19 °C and 75% rh under a light regime of 12 h light/12 h darkness in a climate cabinet and the activity of a compound was assessed as percent disease control compared to untreated when an appropriate level of disease damage appeared in untreated check leaf segments (6-8 days after application).
compound,measurement,setting,value
CC(=O)NC1C(OCC(OC2OC(CO)C(O)C(O)C2O)C2OC(OC3C(O)C(CO)OC(OC4(CO)OC(C(O)CO)C(O)C4OC4OC(CO)C(O)C(O)C4O)C3O)C(O)C(O)C2OC2OC(C(O)CO)C(O)C(O)C2OC2OCC(OC(N)=O)C(O)C2O)OC(CO)C(O)C1O (stereo not drawn) [compound of Formula (I)],preventive activity to control Puccinia recondita,[1],preventive (application of compound followed by infection with pathogen)
same,% reduction fungal growth,[1]; 0.80 ppm,0%
same,% reduction fungal growth,[1]; 2.50 ppm,0%
same,% reduction fungal growth,[1]; 7.40 ppm,0%
same,% reduction fungal growth,[1]; 22.00 ppm,0%
same,% reduction fungal growth,[1]; 67.00 ppm,45%
same,% reduction fungal growth,[1]; 200.00 ppm,95%
same,inhibition of growth at 3.13 µg/mL,Puccinia recondita; Formula (I) 3.13 ppm solo,0%
same,inhibition of growth at 6.25 µg/mL,Puccinia recondita; Formula (I) 6.25 ppm solo,0%
same,inhibition of growth at 12.5 µg/mL,Puccinia recondita; Formula (I) 12.5 ppm solo,10%
same,inhibition of growth at 25 µg/mL,Puccinia recondita; Formula (I) 25 ppm solo,10%
same,inhibition of growth at 50 µg/mL,Puccinia recondita; Formula (I) 50 ppm solo,20%
same,inhibition of growth at 100 µg/mL,Puccinia recondita; Formula (I) 100 ppm solo,70%
same,inhibition of growth at 200 µg/mL,Puccinia recondita; Formula (I) 200 ppm solo,80%
same,curative activity to control Puccinia recondita,[2],curative (infection of pathogen followed by application of compound) activity
same,% reduction fungal growth,[2]; 0.80 ppm,0%
same,% reduction fungal growth,[2]; 2.50 ppm,0%
same,% reduction fungal growth,[2]; 7.40 ppm,0%
same,% reduction fungal growth,[2]; 22.00 ppm,90%
same,% reduction fungal growth,[2]; 67.00 ppm,100%
same,% reduction fungal growth,[2]; 200.00 ppm,100%
